Results from ChEMBL document CHEMBL1201862, “PubChem BioAssay data set” (2004).
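Exposure lasted 48 hours, with cells grown in 96-well plates and compounds tested at five concentrations. The concentration for 50% growth inhibition is given as GI50.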 Calls of active or inactive are those of the source. No stated cut-off is given here; in the data, active = GI50 up to about 1.1 µM and inactive = higher.

Columns and labels:
Experiment in all cases: NCI-60 cell line screen, 48 h
786-0 = system: 786-0
A498 = system: A498
A549 = system: A549
ACHN = system: ACHN
CCRF-CEM = system: CCRF-CEM
COLO 205 = system: COLO 205
DLD-1 = system: DLD-1
DMS-114 = system: DMS-114
EKVX = system: EKVX
HCC 2998 = system: HCC 2998
HCT-116 = system: HCT-116
HCT-15 = system: HCT-15
HL-60 = system: HL-60
HOP-18 = system: HOP-18
HOP-62 = system: HOP-62
HOP-92 = system: HOP-92
HT-29 = system: HT-29
IGROV-1 = system: IGROV-1
K562 = system: K562
KM-20L2 = system: KM-20L2
KM12 = system: KM12
LOX IMVI = system: LOX IMVI
LXFL 529 = system: LXFL 529
M14 = system: M14
M19-MEL = system: M19-MEL
MOLT-4 = system: MOLT-4
Malme-3M = system: Malme-3M
NCI-H226 = system: NCI-H226
NCI-H23 = system: NCI-H23
NCI-H460 = system: NCI-H460
NCI-H522 = system: NCI-H522
OVCAR-3 = system: OVCAR-3
OVCAR-4 = system: OVCAR-4
OVCAR-5 = system: OVCAR-5
OVCAR-8 = system: OVCAR-8
RPMI-8226 = system: RPMI-8226
RXF 393 = system: RXF 393
RXF 631 = system: RXF 631
SF-268 = system: SF-268
SF-295 = system: SF-295
SF-539 = system: SF-539
SK-MEL-28 = system: SK-MEL-28
SK-MEL-2 = system: SK-MEL-2
SK-MEL-5 = system: SK-MEL-5
SK-OV-3 = system: SK-OV-3
SN12C = system: SN12C
SNB-19 = system: SNB-19
SNB-75 = system: SNB-75
SNB-78 = system: SNB-78
SW-620 = system: SW-620
TK-10 = system: TK-10
U-251 = system: U-251
UACC-257 = system: UACC-257
UACC-62 = system: UACC-62
UO-31 = system: UO-31
XF498 = system: XF498
DMS-273 = system: DMS-273
CAKI-1 = system: CAKI-1
SR = system: SR

Measured: GI50

N#CC(C(=N/O)/C(=N\O)C(C#N)c1ccccc1)c1ccccc1 (stereo not given)
> 100 µM: HCT-15
inactive: 786-0 > 100 µM | A498 > 100 µM | A549 > 100 µM | ACHN > 100 µM | CCRF-CEM > 100 µM | COLO 205 > 100 µM | DLD-1 > 100 µM | DMS-114 > 100 µM | EKVX > 100 µM | HCC 2998 > 100 µM | HCT-116 > 100 µM | HL-60 > 100 µM | HOP-18 > 100 µM | HOP-62 > 100 µM | HOP-92 > 100 µM | HT-29 > 100 µM | IGROV-1 > 100 µM | K562 > 100 µM | KM-20L2 > 100 µM | KM12 > 100 µM | LOX IMVI 87.3 µM | LXFL 529 > 100 µM | M14 > 100 µM | M19-MEL 99.1 µM | MOLT-4 > 100 µM | Malme-3M > 100 µM | NCI-H226 > 100 µM | NCI-H23 > 100 µM | NCI-H460 > 100 µM | NCI-H522 > 100 µM | OVCAR-3 > 100 µM | OVCAR-4 > 100 µM | OVCAR-5 > 100 µM | OVCAR-8 > 100 µM | RPMI-8226 > 100 µM | RXF 393 > 100 µM | RXF 631 > 100 µM | SF-268 > 100 µM | SF-295 > 100 µM | SF-539 > 100 µM | SK-MEL-28 > 100 µM | SK-MEL-2 > 100 µM | SK-MEL-5 > 100 µM | SK-OV-3 > 100 µM | SN12C > 100 µM | SNB-19 > 100 µM | SNB-75 > 100 µM | SNB-78 > 100 µM | SW-620 > 100 µM | TK-10 > 100 µM | U-251 > 100 µM | UACC-257 > 100 µM | UACC-62 > 100 µM | UO-31 > 100 µM | XF498 > 100 µM

CC(c1ccccc1)C(O)S(=O)(=O)O (stereo not given)
inactive: 786-0 > 100 µM | A498 > 100 µM | A549 > 100 µM | ACHN > 100 µM | CCRF-CEM > 100 µM | COLO 205 > 100 µM | DMS-114 98.9 µM | DMS-273 > 100 µM | EKVX > 100 µM | HCT-116 > 100 µM | HOP-18 > 100 µM | HOP-92 > 100 µM | HT-29 > 100 µM | IGROV-1 > 100 µM | K562 > 10 µM | KM-20L2 > 100 µM | KM12 > 100 µM | LOX IMVI 36.8 µM | LXFL 529 > 100 µM | M14 > 100 µM | M19-MEL > 100 µM | MOLT-4 > 100 µM | Malme-3M > 100 µM | NCI-H226 > 100 µM | NCI-H23 > 100 µM | NCI-H460 88.3 µM | NCI-H522 > 100 µM | OVCAR-3 > 100 µM | OVCAR-4 > 100 µM | OVCAR-5 > 100 µM | OVCAR-8 > 100 µM | RPMI-8226 > 100 µM | RXF 393 > 100 µM | RXF 631 > 100 µM | SF-268 > 100 µM | SF-295 > 100 µM | SF-539 > 100 µM | SK-MEL-28 > 100 µM | SK-MEL-2 > 100 µM | SK-OV-3 > 100 µM | SN12C > 100 µM | SNB-19 > 100 µM | SNB-75 43.7 µM | SNB-78 > 100 µM | SW-620 > 100 µM | TK-10 > 100 µM | U-251 > 100 µM | UACC-257 > 100 µM | UACC-62 > 100 µM | UO-31 > 100 µM | XF498 > 100 µM
> 100 µM: HCT-15

CCCSS[C@H]1NC(=O)[C@H]1NC(=O)COc1ccccc1
inactive: 786-0 17.4 µM | A498 24.8 µM | A549 24.4 µM | ACHN 16.6 µM | CAKI-1 17.3 µM | CCRF-CEM 3.85 µM | COLO 205 12.3 µM | DLD-1 11.1 µM | DMS-114 19 µM | DMS-273 17.4 µM | EKVX 20.6 µM | HCC 2998 15.5 µM | HCT-116 10.3 µM | HL-60 2.6 µM | HOP-18 28 µM | HOP-62 > 100 µM | HOP-92 10.4 µM | HT-29 19.8 µM | IGROV-1 21.1 µM | K562 6.19 µM | KM-20L2 20.9 µM | KM12 17.2 µM | LOX IMVI 16.4 µM | LXFL 529 5.66 µM | M14 12 µM | M19-MEL 17.9 µM | MOLT-4 1.28 µM | Malme-3M 13.8 µM | NCI-H23 17.7 µM | NCI-H460 17.6 µM | OVCAR-3 17.3 µM | OVCAR-4 17.3 µM | OVCAR-5 59 µM | OVCAR-8 13.9 µM | RPMI-8226 14 µM | RXF 393 16.1 µM | RXF 631 17.5 µM | SF-268 20 µM | SF-295 41.9 µM | SF-539 15.3 µM | SK-MEL-28 16.6 µM | SK-MEL-2 17.9 µM | SK-MEL-5 22.8 µM | SK-OV-3 > 100 µM | SN12C 15.1 µM | SNB-19 > 100 µM | SNB-75 21.1 µM | SNB-78 25.8 µM | SR 3.16 µM | SW-620 5.74 µM | TK-10 27.9 µM | U-251 17.7 µM | UACC-257 14.4 µM | UACC-62 17.9 µM | UO-31 32.5 µM | XF498 17.8 µM
11.7 µM: HCT-15
